According to patent US20080051387A1, “TETRAHYDROPYRIDO[3,4-D]PYRIMIDINES AND RELATED ANALOGUES” (priority 2006, published 2008):

target: T1, chimeric human H3 receptor (Homo sapiens, UniProt Q9Y5N1); test: Chimeric human H3 receptor screening GTP binding assay (inhibition of histamine-stimulated GTP-gamma35S binding, Example 8); format: biochemical; settings: 1 h; assay described in Example 8; symbol "!" in column headed Ki; read-out: Ki ("!": percent inhibition of agonist-induced GTP-gammaS binding to H3)
T1 construct: rat Galpha-i2 (Gnai2, rat); made in house; host or cells: Sf9 insect cells (baculovirus); P2 membranes
T1 sequence (Q9Y5N1 with tags, fused parts or gaps): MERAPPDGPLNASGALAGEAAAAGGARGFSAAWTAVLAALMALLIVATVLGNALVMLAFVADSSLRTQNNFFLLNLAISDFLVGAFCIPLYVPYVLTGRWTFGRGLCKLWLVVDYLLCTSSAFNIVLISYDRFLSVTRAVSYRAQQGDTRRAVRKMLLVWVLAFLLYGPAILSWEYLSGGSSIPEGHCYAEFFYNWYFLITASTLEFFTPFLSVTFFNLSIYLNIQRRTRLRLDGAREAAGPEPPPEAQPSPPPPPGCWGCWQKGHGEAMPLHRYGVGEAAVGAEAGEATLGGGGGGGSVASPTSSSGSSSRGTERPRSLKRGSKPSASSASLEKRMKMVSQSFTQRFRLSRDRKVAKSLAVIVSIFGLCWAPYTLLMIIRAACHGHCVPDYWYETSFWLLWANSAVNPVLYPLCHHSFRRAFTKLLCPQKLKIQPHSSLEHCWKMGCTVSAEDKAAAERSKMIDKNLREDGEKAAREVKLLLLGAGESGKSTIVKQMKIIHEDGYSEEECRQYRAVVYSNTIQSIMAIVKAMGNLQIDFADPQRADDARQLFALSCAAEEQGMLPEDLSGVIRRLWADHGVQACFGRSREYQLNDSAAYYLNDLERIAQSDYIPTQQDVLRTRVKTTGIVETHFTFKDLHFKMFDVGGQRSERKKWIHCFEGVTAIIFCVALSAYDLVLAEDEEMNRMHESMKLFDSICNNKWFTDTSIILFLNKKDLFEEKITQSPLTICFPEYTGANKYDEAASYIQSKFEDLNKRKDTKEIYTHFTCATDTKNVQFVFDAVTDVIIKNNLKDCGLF
Procedure: This Example illustrates a representative screening assay for evaluating inhibition of histamine-stimulated GTP-gamma^35S binding. Such GTP binding activity can be used to identify H3 antagonists and inverse agonists. A compound analyzed in this assay is referred to herein as a “test compound,” and the initial identification of antagonists and inverse agonists is performed using a test compound concentration of 4 μM.
Four independent baculoviral stocks (one directing the expression of the chimeric human H3 receptor and three directing the expression of each of the three subunits of a heterotrimeric G-protein) are used to infect a culture of Sƒ9 cells as described above. P2 membranes are prepared as described above, and are resuspended by Dounce homogenization (tight pestle) in GTP binding assay buffer (50 mM Tris pH 7.4, 120 mM NaCl, 5 mM MgCl2, 2 mM EGTA, 1 mg/ml BSA, 0.2 mg/ml bacitracin, 0.02 mg/ml aprotinin, 0.01 mg/ml saponin, 10 μM GDP) and added to assay tubes at a concentration of 35 μg protein/reaction tube. Non-radiolabeled test compounds are added to separate reactions at a concentration of 4 μM along with 1 μM histamine (agonist). Reactions are initiated by the addition of 125 pM GTP-gamma^35S with a final assay volume of 0.20 ml.
After a 60-min incubation at room temperature, reactions are terminated by vacuum filtration over GF/C filters (pre-soaked in 50 mM Tris pH 7.4, 120 mM NaCl plus 0.1% BSA) followed by washing with ice-cold buffer (50 mM Tris pH 7.4, 120 mM NaCl). The amount of receptor-bound (and thereby membrane-bound) GTP-gamma^35S is determined by measuring the bound radioactivity, preferably by liquid scintillation spectrometry of the washed filters. Non-specific binding is determined using 10 uM GTP-gammaS and typically represents less than 5 percent of total binding. After subtraction of non-specific binding, data is expressed as percent inhibition of 1 μM histamine signal.
Neutral antagonists are those test compounds that reduce the histamine-stimulated GTP binding activity towards, but not below, baseline levels. In contrast, in the absence of added histamine, inverse agonists reduce the GTP binding activity of the receptor-containing membranes below baseline. Any test compound that elevates GTP binding activity above baseline in the absence of added histamine in this assay is defined as having agonist activity.

Row | inhibition at 4 µM [%] | SMILES
1 | ≥ 90 | Cc1oc(-c2ccc(Cl)cc2)cc1C(=O)N1CCc2cnc(N3CCN(C4CCC4)CC3)nc2CC1 [Compound 471, 7-[5-(4-chlorophenyl)-2-methyl-3-furoyl]-2-(4-cyclobutylpiperazin-1-yl)-6,7,8,9-tetrahydro-5H-pyrimido[4,5-d]azepine]
2 | ≥ 90 | O=C(/C=C/c1ccccc1Cl)N1CCc2cnc(N3CCN(C4CCC4)CC3)nc2CC1 [Compound 579, 7-[(2E)-3-(2-chlorophenyl)prop-2-enoyl]-2-(4-cyclobutylpiperazin-1-yl)-6,7,8,9-tetrahydro-5H-pyrimido[4,5-d]azepine]
3 | ≥ 90 | O=C(c1c(Cl)cccc1Cl)N1CCc2cnc(N3CCN(C4CCC4)CC3)nc2CC1 [Compound 435, 2-(4-cyclobutylpiperazin-1-yl)-7-(2,6-dichlorobenzoyl)-6,7,8,9-tetrahydro-5H-pyrimido[4,5-d]azepine]
4 | ≥ 90 | CCOc1ccsc1C(=O)N1CCc2cnc(N3CCN(C4CCC4)CC3)nc2CC1 [Compound 447, 2-(4-cyclobutylpiperazin-1-yl)-7-[(3-ethoxy-2-thienyl)carbonyl]-6,7,8,9-tetrahydro-5H-pyrimido[4,5-d]azepine]
5 | ≥ 90 | O=C(c1ccncc1)N1CCc2cnc(N3CCN(C4CCC4)CC3)nc2CC1 [Compound 487, 2-(4-cyclobutylpiperazin-1-yl)-7-isonicotinoyl-6,7,8,9-tetrahydro-5H-pyrimido[4,5-d]azepine]
6 | ≥ 90 | Cc1ccc(CC(=O)N2CCc3cnc(N4CCN(C5CCC5)CC4)nc3CC2)cc1 [Compound 515, 2-(4-cyclobutylpiperazin-1-yl)-7-[(4-methylphenyl)acetyl]-6,7,8,9-tetrahydro-5H-pyrimido[4,5-d]azepine]
7 | ≥ 90 | COc1ccc(OC)c(/C=C/C(=O)N2CCc3cnc(N4CCN(C5CCC5)CC4)nc3CC2)c1 [Compound 574, 2-(4-cyclobutylpiperazin-1-yl)-7-[(2E)-3-(2,5-dimethoxyphenyl)prop-2-enoyl]-6,7,8,9-tetrahydro-5H-pyrimido[4,5-d]azepine]
8 | ≥ 90 | CCCOc1ncccc1C(=O)N1CCc2cnc(N3CCN(C4CCC4)CC3)nc2CC1 [Compound 545, 2-(4-cyclobutylpiperazin-1-yl)-7-[(2-propoxypyridin-3-yl)carbonyl]-6,7,8,9-tetrahydro-5H-pyrimido[4,5-d]azepine]
9 | ≥ 90 | Cc1ccc(N)c(C(=O)N2CCc3cnc(N4CCN(C5CCC5)CC4)nc3CC2)c1 [Compound 539, 2-{[2-(4-cyclobutylpiperazin-1-yl)-5,6,8,9-tetrahydro-7H-pyrimido[4,5-d]azepin-7-yl]carbonyl}-4-methylaniline]
10 | ≥ 90 | C=CCSc1ncccc1C(=O)N1CCc2cnc(N3CCN(C4CCC4)CC3)nc2CC1 [Compound 499, 7-{[2-(allythio)pyridin-3-yl]carbonyl}-2-(4-cyclobutylpiperazin-1-yl)-6,7,8,9-tetrahydro-5H-pyrimido[4,5-d]azepine]
11 | ≥ 90 | COc1cc(Cl)c(C(=O)N2CCc3cnc(N4CCN(C5CCC5)CC4)nc3CC2)cc1OC [Compound 428, 7-(2-chloro-4,5-dimethoxybenzoyl)-2-(4-cyclobutylpiperazin-1-yl)-6,7,8,9-tetrahydro-5H-pyrimido[4,5-d]azepine]

same assay, conditions: 1 h; assay of Example 8; symbol "!" in column headed Ki; read-out: percent inhibition of agonist-induced GTP-gammaS binding to H3

Row | inhibition at 4 µM [%] | SMILES
12 | ≥ 90 | O=C(Cc1cccc(Br)c1)N1CCc2cnc(N3CCN(C4CCC4)CC3)nc2CC1 [Compound 289, 7-[(3-bromophenyl)acetyl]-2-(4-cyclobutylpiperazin-1-yl)-6,7,8,9-tetrahydro-5H-pyrimido[4,5-d]azepine]
13 | ≥ 90 | CCCCC(=O)N1CCc2cnc(N3CCN(C4CCC4)CC3)nc2CC1 [Compound 207, 2-(4-cyclobutylpiperazin-1-yl)-7-pentanoyl-6,7,8,9-tetrahydro-5H-pyrimido[4,5-d]azepine]
14 | ≥ 90 | CCCC(=O)N1CCc2cnc(N3CCN(C4CCC4)CC3)nc2CC1 [Compound 206, 7-butyryl-2-(4-cyclobutylpiperazin-1-yl)-6,7,8,9-tetrahydro-5H-pyrimido[4,5-d]azepine]
15 | ≥ 90 | COc1ccc(C(=O)N2CCc3cnc(N4CCN(C5CCC5)CC4)nc3CC2)cc1OC1CCCC1 [Compound 376, 2-(4-cyclobutylpiperazin-1-yl)-7-[3-(cyclopentyloxy)-4-methoxybenzoyl]-6,7,8,9-tetrahydro-5H-pyrimido[4,5-d]azepine]
16 | ≥ 90 | O=C(C(c1ccccc1)C1CCCC1)N1CCc2cnc(N3CCN(C4CCC4)CC3)nc2CC1 (centres unmarked) [Compound 353, 2-(4-cyclobutylpiperazin-1-yl)-7-[cyclopentyl(phenyl)acetyl]-6,7,8,9-tetrahydro-5H-pyrimido[4,5-d]azepine]
17 | ≥ 90 | Fc1cccc(CN2CCc3cnc(N4CCN(C5CCC5)CC4)nc3CC2)c1 [Compound 231, 2-(4-cyclobutylpiperazin-1-yl)-7-(3-fluorobenzyl)-6,7,8,9-tetrahydro-5H-pyrimido[4,5-d]azepine]
18 | ≥ 90 | CCC(C)C(=O)N1CCc2cnc(N3CCN(C4CCC4)CC3)nc2CC1 (centres unmarked) [Compound 223, 2-(4-cyclobutylpiperazin-1-yl)-7-(2-methylbutanoyl)-6,7,8,9-tetrahydro-5H-pyrimido[4,5-d]azepine]
19 | ≥ 90 | COc1ccc(OC)c(CN2CCc3cnc(N4CCN(C5CCC5)CC4)nc3CC2)c1 [Compound 261, 2-(4-cyclobutylpiperazin-1-yl)-7-(2,5-dimethoxybenzyl)-6,7,8,9-tetrahydro-5H-pyrimido[4,5-d]azepine]
20 | ≥ 90 | O=C(c1ccco1)N1CCc2cnc(N3CCN(C4CCC4)CC3)nc2CC1 [Compound 196, 2-(4-cyclobutylpiperazin-1-yl)-7-(2-furoyl)-6,7,8,9-tetrahydro-5H-pyrimido[4,5-d]azepine]
21 | ≥ 90 | c1nc(N2CCN(C3CCC3)CC2)nc2c1CCN(CC1CCOCC1)CC2 [Compound 272, 2-(4-cyclobutylpiperazin-1-yl)-7-(tetrahydro-2H-pyran-4-ylmethyl)-6,7,8,9-tetrahydro-5H-pyrimido[4,5-d]azepine]

same assay, conditions: symbol ! in Ki; test compound 4 μM, 1 μM histamine; read-out: percent inhibition of agonist-induced GTP-gammaS binding to H3

Row | inhibition at 4 µM [%] | SMILES
22 | ≥ 90 | Cc1c(F)cccc1C(C)N1CCc2c(ncnc2N2CCN(C3CCC3)CC2)C1 (centres unmarked) [Compound 134, 4-(4-cyclobutylpiperazin-1-yl)-7-[1-(3-fluoro-2-methylphenyl)ethyl]-5,6,7,8-tetrahydropyrido[3,4-d]pyrimidine]
23 | ≥ 90 | Cc1ccc(CN2CCc3c(ncnc3N3CCN(C4CCC4)CC3)C2)cc1 [Compound 70, 4-(4-cyclobutylpiperazin-1-yl)-7-(4-methylbenzyl)-5,6,7,8-tetrahydropyrido[3,4-d]pyrimidine]
24 | ≥ 90 | c1ccc2nc(CN3CCc4c(ncnc4N4CCN(C5CCC5)CC4)C3)ccc2c1 [Compound 93, 4-(4-cyclobutylpiperazin-1-yl)-7-(quinolin-2-ylmethyl)-5,6,7,8-tetrahydropyrido[3,4-d]pyrimidine]
25 | ≥ 90 | c1nc2c(c(N3CCN(C4CCC4)CC3)n1)CCN(Cc1ccc3c(c1)OCCO3)CC2 [Compound 173, 4-(4-cyclobutylpiperazin-1-yl)-7-(2,3-dihydro-1,4-benzodioxin-6-ylmethyl)-6,7,8,9-tetrahydro-5H-pyrimido[4,5-d]azepine]
26 | ≥ 90 | O=C(CC1CCCC1)N1CCc2c(ncnc2N2CCN(C3CCC3)CC2)C1 [Compound 47, 4-(4-cyclobutylpiperazin-1-yl)-7-(cyclopentylacetyl)-5,6,7,8-tetrahydropyrido[3,4-d]pyrimidine]
27 | ≥ 90 | CCCCCCN1CCc2c(ncnc2N2CCN(C3CCC3)CC2)C1 [Compound 85, 4-(4-cyclobutylpiperazin-1-yl)-7-hexyl-5,6,7,8-tetrahydropyrido[3,4-d]pyrimidine]
28 | ≥ 90 | Cn1ccnc1CN1CCc2ncnc(N3CCN(C4CCC4)CC3)c2CC1 [Compound 150, 4-(4-cyclobutylpiperazin-1-yl)-7-[(1-methyl-1H-imidazol-2-yl)methyl]-6,7,8,9-tetrahydro-5H-pyrimido[4,5-d]azepine]
29 | ≥ 90 | COc1ccc(C(=O)N2CCc3c(ncnc3N3CCN(C4CCC4)CC3)C2)cc1Cl [Compound 63, 7-(3-chloro-4-methoxybenzoyl)-4-(4-cyclobutylpiperazin-1-yl)-5,6,7,8-tetrahydropyrido[3,4-d]pyrimidine]
